Source: patent US20120046357A1, “Benzamide and Napthamide Derivatives Inhibiting Nuclear Factor-Kappa (B) - (NK-kB)” (Profectus Biosciences, Inc., priority 2009, published 2012)
Counter-ions that a name gives are not always drawn.

How the values were obtained:
[1] = system: NF-κB; assay: 293/NFkB-luc reporter cell assay (TNF-α induced luciferase expression); assay type: cell-based; conditions: 293 cells; for EC50: pNF-κB-luc reporter, 2 h pretreatment, 20 ng/ml TNF-α 18 h
Protocol: Two reporter cell assays were used to determine the ability of the compound of Example 10 to inhibit NF-κB driven transcription. The first assay was a 293-cell based assay with a stably integrated pNF-κB-luc reporter plasmid containing 3 NF-κB promoter elements. The second assay was a 293-cell based assay with a stably integrated pTRH1-NF-κB-dscGFP reporter containing 4 NF-κB promoter elements. Cells were treated with 0, 0.2, 1, 10, 20 and 40 μM of the compound of Example 10 for 2 hours then were induced with 20 ng/ml TNF-α for 18 hours. Following the induction, luminescence or fluorescence was quantified using a Beckman-Coulter 2300 plate reader. […] These values represent the median value generated from three independent experiments. As a control, 0.5% DMSO treated and untreated cells were compared to verify that the compound of Example 10 had no effect on the expression of luciferase or in the readout of the assay. There was a slight decrease in the output from the assay in the DMSO treated population although it was not statistically significant. As a result of the controls, the decrease in activity in the drug treated samples was compared to the DMSO control sample.

[2] = target: T1, p65 (RelA) (Homo sapiens, UniProt Q04206); assay: TransAM NF-κB family DNA binding ELISA, p65; assay type: biochemical; conditions: binding to NF-κB consensus oligonucleotide
T1 construct: purchased Active Motif
Protocol: (§1) The binding activity of NF-κB heterodimer or homodimer subunits from activated nuclear extracts or purified recombinant NF-κB proteins exposed to the drug compounds was evaluated using the TransAM NF-κB Family binding ELISA (Active Motif). 3-5 μg of nuclear extracts from TNFα activated Hela or Raji cells (Active Motif) or 20 ng of purified recombinant proteins (p65 and p50 from Active Motif, p52 from Santa Cruz) were incubated for 1 hour at room temperature with 20 μL drug compounds diluted in Complete Lysis buffer without DTT. Treated samples were then transferred to 30 μL Complete Binding Buffer (with DTT) in microplate wells pre-coated with the NF-κB consensus oligonucleotide. […] The plate was incubated for 1 hour at room temperature with gentle shaking and then washed 3 times with 200 μL 1× Wash Buffer. NF-κB p65, p50, p52, RelB, or c-Rel subunits bound to the plate were detected with 100 μL of the primary antibody (diluted 1:1000 in 1× Antibody Buffer) specific for that subunit. The plate was incubated for 1 hour at room temperature and then washed 3 times with 200 μL 1× Wash Buffer. Next, 100 μL of a HRP conjugated goat anti-rabbit antibody (diluted 1:1,000 in 1× Antibody Buffer) was added to each well. The plate was incubated for 1 hour at room temperature and then washed 4 times with 200 μL 1× Wash Buffer. 100 μL of room temperature Developing Solution was added to each well. The reaction was allowed to develop for 2-10 minutes until a medium dark blue color developed (depending on the subunit activity in the lot of extract or lot of recombinant protein used) and then the reaction was stopped with 100 μL Stop Solution yielding a yellow color. Absorbance was recorded using a Becton-Dickinson DTX 880 Multimode Detector at 450 nm with a reference wavelength subtracted at 620 nm. FIGS. 2, 3 and 4 illustrate the effect of Example 10 on inhibiting RelA, RelB and c-Rel binding to NF-κB sites.

[3] = target: T2, c-Rel (Homo sapiens, UniProt Q04864); assay: TransAM NF-κB family DNA binding ELISA, c-Rel; assay type: biochemical; conditions: for IC50: binding to NF-κB consensus oligonucleotide, cells without % sign
T2 sequence (Q04864 2-619 limits assumed): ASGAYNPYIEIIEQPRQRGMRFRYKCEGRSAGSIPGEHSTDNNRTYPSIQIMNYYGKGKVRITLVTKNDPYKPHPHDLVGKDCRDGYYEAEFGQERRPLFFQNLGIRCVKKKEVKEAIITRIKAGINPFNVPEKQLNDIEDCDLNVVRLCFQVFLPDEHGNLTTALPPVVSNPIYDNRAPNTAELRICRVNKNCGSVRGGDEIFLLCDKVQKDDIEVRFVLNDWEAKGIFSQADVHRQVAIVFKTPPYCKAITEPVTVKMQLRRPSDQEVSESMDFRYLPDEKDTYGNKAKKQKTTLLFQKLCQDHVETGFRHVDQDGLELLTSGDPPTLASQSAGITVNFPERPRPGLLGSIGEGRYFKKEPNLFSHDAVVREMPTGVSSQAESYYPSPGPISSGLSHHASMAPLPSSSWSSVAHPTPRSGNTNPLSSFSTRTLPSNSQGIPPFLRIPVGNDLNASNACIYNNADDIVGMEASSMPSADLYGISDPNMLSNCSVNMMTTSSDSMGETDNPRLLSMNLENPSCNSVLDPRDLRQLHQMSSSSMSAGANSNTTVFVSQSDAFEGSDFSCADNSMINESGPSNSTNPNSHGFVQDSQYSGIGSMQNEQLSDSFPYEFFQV
Protocol: as §1

[4] = target: T3, RelB (Homo sapiens, UniProt Q01201); assay: TransAM NF-κB family DNA binding ELISA, RelB; assay type: biochemical; conditions: for IC50: binding to NF-κB consensus oligonucleotide, cells without % sign
T3 sequence (Q01201 1-579): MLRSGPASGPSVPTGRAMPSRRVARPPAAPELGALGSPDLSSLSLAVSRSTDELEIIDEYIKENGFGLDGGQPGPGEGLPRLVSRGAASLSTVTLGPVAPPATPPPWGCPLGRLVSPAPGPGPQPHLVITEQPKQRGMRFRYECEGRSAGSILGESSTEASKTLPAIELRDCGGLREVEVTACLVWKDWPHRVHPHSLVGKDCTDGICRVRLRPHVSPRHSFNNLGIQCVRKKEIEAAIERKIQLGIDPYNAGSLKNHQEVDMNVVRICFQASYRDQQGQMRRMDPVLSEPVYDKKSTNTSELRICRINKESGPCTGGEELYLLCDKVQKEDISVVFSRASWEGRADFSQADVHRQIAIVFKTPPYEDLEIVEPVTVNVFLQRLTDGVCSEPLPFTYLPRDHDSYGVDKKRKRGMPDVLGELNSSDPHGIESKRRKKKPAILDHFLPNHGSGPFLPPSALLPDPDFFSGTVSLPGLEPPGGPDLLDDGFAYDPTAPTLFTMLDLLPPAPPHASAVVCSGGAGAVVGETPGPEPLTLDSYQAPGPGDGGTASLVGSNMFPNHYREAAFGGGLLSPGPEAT
Protocol: as §1

T1 sequence (Q04206 whole entry): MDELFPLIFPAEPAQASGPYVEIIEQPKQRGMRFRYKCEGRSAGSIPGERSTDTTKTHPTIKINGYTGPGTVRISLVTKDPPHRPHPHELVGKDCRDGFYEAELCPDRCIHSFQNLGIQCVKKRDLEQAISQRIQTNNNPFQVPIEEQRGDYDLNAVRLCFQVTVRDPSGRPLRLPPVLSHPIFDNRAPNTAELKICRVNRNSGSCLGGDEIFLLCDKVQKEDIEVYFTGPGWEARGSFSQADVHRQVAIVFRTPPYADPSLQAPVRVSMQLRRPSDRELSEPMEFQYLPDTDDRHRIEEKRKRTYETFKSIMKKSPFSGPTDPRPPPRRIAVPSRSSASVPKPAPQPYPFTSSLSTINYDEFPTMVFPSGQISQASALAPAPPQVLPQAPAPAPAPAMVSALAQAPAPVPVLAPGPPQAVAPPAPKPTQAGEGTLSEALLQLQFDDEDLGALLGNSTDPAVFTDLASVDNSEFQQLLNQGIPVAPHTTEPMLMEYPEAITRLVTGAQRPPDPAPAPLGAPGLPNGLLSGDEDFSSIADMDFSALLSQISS

## O=C(NC1=CC(=O)C2OC2C1O)c1ccc(C(F)(F)F)cc1O (racemic) [Example 1, 2-hydroxy-N-(2-hydroxy-5-oxo-7-oxabicyclo[4.1.0]hept-3-en-3-yl)-4-(trifluoromethyl)benzamide]
[1]; 293/NFkB-luc
  EC50: 36 µM
[2]
  IC50: 66.3 µM
[3]
  inhibition at 5 µM: 1%
[4]
  inhibition at 5 µM: 6%

## O=C(NC1=CC(=O)C2OC2C1O)c1ccc(Cl)cc1O (racemic) [Example 2, (±)-4-chloro-2-hydroxy-N-(2-hydroxy-5-oxo-7-oxabicyclo[4.1.0]hept-3-en-3-yl)benzamide]
[1]; 293/NFkB-luc
  EC50: 12 µM
[2]
  IC50: 26.3 µM
[3]
  inhibition at 5 µM: 7%
[4]
  inhibition at 5 µM: 18%

## Cc1ccc(C(=O)NC2=CC(=O)C3OC3C2O)c(O)c1 (racemic) [Example 3, (±)-2-hydroxy-N-(2-hydroxy-5-oxo-7-oxabicyclo[4.1.0]hept-3-en-3-yl)-4-methylbenzamide]
[1]; 293/NFkB-luc
  EC50: 20 µM
[2]
  IC50: 17 µM
[3]
  inhibition at 5 µM: 5%
[4]
  inhibition at 5 µM: 10%

## Cc1cccc(C(=O)NC2=CC(=O)C3OC3C2O)c1O (racemic) [Example 4, (±)-2-hydroxy-N-(2-hydroxy-5-oxo-7-oxabicyclo[4.1.0]hept-3-en-3-yl)-3-methylbenzamide]
[1]; 293/NFkB-luc
  EC50: 19 µM
[2]
  IC50: 36.3 µM
[3]
  inhibition at 5 µM: 0%
[4]
  inhibition at 5 µM: 9%

## COc1ccc(C(=O)NC2=CC(=O)C3OC3C2O)c(O)c1 (racemic) [Example 5, (±)-2-hydroxy-N-(2-hydroxy-5-oxo-7-oxabicyclo[4.1.0]hept-3-en-3-yl)-4-methoxybenzamide]
[1]; 293/NFkB-luc
  EC50: 32 µM
[2]
  IC50: 14.2 µM
[3]
  inhibition at 5 µM: 6%
[4]
  inhibition at 5 µM: 17%

## O=C(NC1=CC(=O)C2OC2C1O)c1cccc(Cl)c1O (racemic) [Example 6, (±)-3-chloro-2-hydroxy-N-(2-hydroxy-5-oxo-7-oxabicyclo[4.1.0]hept-3-en-3-yl)benzamide]
[1]; 293/NFkB-luc
  EC50: 37 µM
[2]
  IC50: 19.4 µM
[3]
  inhibition at 5 µM: 7%
[4]
  inhibition at 5 µM: 13%

## O=C(NC1=CC(=O)C2OC2C1O)c1cc2ccccc2cc1O (racemic) [Example 7, (±)-3-hydroxy-N-(2-hydroxy-5-oxo-7-oxabicyclo[4.1.0]hept-3-en-3-yl)-2-naphthamide]
[1]; 293/NFkB-luc
  EC50: 21 µM
[2]
  IC50: 488 µM
[3]
  inhibition at 5 µM: 2%
[4]
  inhibition at 5 µM: 6%

## O=C(NC1=CC(=O)C2OC2C1O)c1ccc2ccccc2c1O (racemic) [Example 8, (±)-1-hydroxy-N-(2-hydroxy-5-oxo-7-oxabicyclo[4.1.0]hept-3-en-3-yl)-2-naphthamide]
[1]; 293/NFkB-luc
  EC50: 7.1 µM
[2]
  IC50: 45.2 µM
[3]
  inhibition at 5 µM: 3%
[4]
  inhibition at 5 µM: 15%

## O=C(NC1=CC(=O)C2OC2C1O)c1cc(Br)ccc1O (racemic) [Example 9, (±)-5-bromo-2-hydroxy-N-(2-hydroxy-5-oxo-7-oxabicyclo[4.1.0]hept-3-en-3-yl)benzamide]
[1]; 293/NFkB-luc
  EC50: 27 µM
[2]
  IC50: 17.7 µM
[3]
  inhibition at 5 µM: 20%
[4]
  inhibition at 5 µM: 32%

## CN(C)c1ccc(C(=O)NC2=CC(=O)C3OC3C2O)c(O)c1 (racemic) [Example 10, (±)-4-(dimethylamino)-2-hydroxy-N-(2-hydroxy-5-oxo-7-oxabicyclo[4.1.0]hept-3-en-3-yl)benzamide]
[1]; 293/NFkB-luc
  EC50: 8.7 µM
[1]; Homo sapiens, HEK293, median of three independent experiments, 20 ng/ml TNF-α, read-out: median IC50, inhibition of expression of the luciferase gene
  IC50: 8.7 µM
[2]
  IC50: 3.9 µM
[3]
  IC50: 17 µM
[4]
  IC50: 23 µM

## COc1ccc2cc(O)c(C(=O)NC3=CC(=O)C4OC4C3O)cc2c1 (racemic) [Example 11, (±)-3-hydroxy-N-(2-hydroxy-5-oxo-7-oxabicyclo[4.1.0]hept-3-en-3-yl)-7-methoxy-2-naphthamide]
[1]; 293/NFkB-luc
  EC50: 7.7 µM
[2]
  IC50: 479 µM
[3]
  IC50: 16 µM
[4]
  IC50: 10 µM

## O=C(NC1=CC(=O)C2OC2C1O)c1cc2cc(Br)ccc2cc1O (racemic) [Example 15, (±)-7-bromo-3-hydroxy-N-(2-hydroxy-5-oxo-7-oxabicyclo[4.1.0]hept-3-en-3-yl)-2-naphthamide]
[1]; 293/NFkB-luc
  EC50: 8 µM
[2]
  IC50: 241 µM
[3]
  IC50: 3.7 µM
[4]
  IC50: 3.9 µM

## COc1c(C(=O)NC2=CC(=O)C3OC3C2O)ccc(F)c1F (racemic) [Example 16, (±)-3,4-difluoro-N-(2-hydroxy-5-oxo-7-oxabicyclo[4.1.0]hept-3-en-3-yl)-2-methoxybenzamide]
[1]; 293/NFkB-luc
  EC50: 8.7 µM
[2]
  IC50: 1.5 µM
[3]
  IC50: 8.1 µM
[4]
  IC50: 2.1 µM

## Cc1ccc(C(C)C)c(C(=O)NC2=CC(=O)C3OC3C2O)c1O (racemic) [Example 17, (±)-2-hydroxy-N-(2-hydroxy-5-oxo-7-oxabicyclo[4.1.0]hept-3-en-3-yl)-6-isopropyl-3-methylbenzamide]
[1]; 293/NFkB-luc
  EC50: 3.7 µM
[2]
  IC50: 295 µM
[3]
  IC50: 232 µM
[4]
  IC50: 82 µM

## CN(C)c1ccc(C(=O)NC2=CC(=O)C3OC3C2O)c(O)c1 (racemic) [Example 19, (±)-4-(dimethylamino)-2-hydroxy-N-(2-hydroxy-5-oxo-7-oxabicyclo[4.1.0]hept-3-en-3-yl)benzamide trifluoroacetate]
[1]; trifluoroacetate
  EC50: 7.5 µM
[2]
  IC50: 3 µM
[3]
  IC50: 14 µM
[4]
  IC50: 3.3 µM

## COc1cc(N(C)C)ccc1C(=O)NC1=CC(=O)C2OC2C1O (racemic) [Example 20, (±)-4-(dimethylamino)-N-(2-hydroxy-5-oxo-7-oxabicyclo[4.1.0]hept-3-en-3-yl)-2-methoxybenzamide]
[1]; 293/NFkB-luc
  EC50: 4.6 µM
[2]
  IC50: 0.91 µM
[3]
  IC50: 1.9 µM
[4]
  IC50: 1 µM
